Measurements taken from patent EP4520824A1, “DEO[…] GENERATES FL[…] USES THEREOF” (Ústav organické chemie a biochemie Akademie ved Ceske …, priority 2023, dated 2025).

Test system: chromogenic deoxyribozyme, optimized variant (Chro 4, SEQ ID NO: 39)
Test: Self-phosphorylation kinetics of chromogenic deoxyribozyme with 4-NPP (ligation assay)
Format: biochemical
Conditions: self-phosphorylation with 4-NPP as substrate; 200 mM KCl, 1 mM ZnCl2, 50 mM HEPES pH 7.4

O=[N+]([O-])c1ccc(OP(=O)(O)O)cc1 [4-NPP, 4-nitrophenyl phosphate] was tested, and the catalytic efficiency was ~10^3 M^-1 min^-1.
